Experiments:
[1] = system: PC3 cells; experiment: PAR / γH2AX immuno-staining and high content imaging after IR; assay type: cell-based, human; conditions: PC3, 2 h treatment, 7 Gy, 1 h recovery
Description: FIGS. 13a-g show PARGi sensitizes cells to ionizing radiation damage. (FIG. 13a) A low-resolution fixed intensity image-montage of the total cell numbers 3×(3×3) imaged per experimental group. A high level of PAR accumulation and γH2AX foci formation in cells exposed to PARGi. PC3 cells treated DMSO or PARG inhibitors (2120 or 2131) for 2 hours, irradiated 7Gy, recovered for 1 hour were fixed and immuno-stained with Poly(ADP)-Ribose (PAR, green), γH2AX (red) and Hoechst (blue) antibodies. Cells were analyzed with quantitative high content imaging. (FIGS. 13b-e) Quantitative analysis of PAR intensity (FIG. 13b), γH2AX intensities (FIG. 13c), the number of cells showing PAR/γH2AX co-localizations (FIG. 13d) and nucleus count for the total number of cells analyzed for each group (FIG. 13e). […] Cells were treated with 2131 for an hour followed by 7Gy ionizing radiation then allowed to recover for 2 h before total cell-lysate preparation and immunoblotting with anti-PAR (upper panel) followed by anti-PARG (middle) and Anti-PCNA (lower) as controls. […] Anti-PAR (green), Anti-γH2AX (red) and Hoechst 33342 (blue). Scale bar 25 μm.
Immuno-staining and imaging. PC3 cells were grown to 75% confluence in 24-well 25 μm film bottom Eppendorf black cell Imaging plates (0030741005), treated with either DMSO or designated inhibitors for 2 hours, irradiated 7 Gy X-ray and allowed to recover for an hour before fixing with 4% (wt/vol) paraformaldehyde, pH 8.0. All subsequent steps were performed at pH8.0. Cells were washed 6-7 times with PBS, permeabilized 0.5% Triton X-100 in PBS on ice for 20 min, blocked overnight with PBS/5% Goat serum/3% BSA/0.5% Triton X-100. Cells were incubated with primary antibody 1:250 dilution in PBS/5% BSA/0.5% Triton X-100 overnight at 4° C. Following 6× wash with PBS pH 8.0, cells were exposed to fluorescence labelled secondary antibody diluted 1:500 in PBS/5% BSA/0.5% Triton X-100 for 1 hour at room temperature. Following 6-7× PBS washes, cells were fixed again with 4% PFA at room temperature for 20 min. […]

[2] = biological target: PARG proteins in PC3 cells (Homo sapiens (Human), UniProt Q86W56); experiment: Cellular thermal shift assay (CETSA), PARG; assay type: cell-based; conditions: 10 μM, 2 h
Chain of PARG proteins in PC3 cells (Q86W56 whole entry): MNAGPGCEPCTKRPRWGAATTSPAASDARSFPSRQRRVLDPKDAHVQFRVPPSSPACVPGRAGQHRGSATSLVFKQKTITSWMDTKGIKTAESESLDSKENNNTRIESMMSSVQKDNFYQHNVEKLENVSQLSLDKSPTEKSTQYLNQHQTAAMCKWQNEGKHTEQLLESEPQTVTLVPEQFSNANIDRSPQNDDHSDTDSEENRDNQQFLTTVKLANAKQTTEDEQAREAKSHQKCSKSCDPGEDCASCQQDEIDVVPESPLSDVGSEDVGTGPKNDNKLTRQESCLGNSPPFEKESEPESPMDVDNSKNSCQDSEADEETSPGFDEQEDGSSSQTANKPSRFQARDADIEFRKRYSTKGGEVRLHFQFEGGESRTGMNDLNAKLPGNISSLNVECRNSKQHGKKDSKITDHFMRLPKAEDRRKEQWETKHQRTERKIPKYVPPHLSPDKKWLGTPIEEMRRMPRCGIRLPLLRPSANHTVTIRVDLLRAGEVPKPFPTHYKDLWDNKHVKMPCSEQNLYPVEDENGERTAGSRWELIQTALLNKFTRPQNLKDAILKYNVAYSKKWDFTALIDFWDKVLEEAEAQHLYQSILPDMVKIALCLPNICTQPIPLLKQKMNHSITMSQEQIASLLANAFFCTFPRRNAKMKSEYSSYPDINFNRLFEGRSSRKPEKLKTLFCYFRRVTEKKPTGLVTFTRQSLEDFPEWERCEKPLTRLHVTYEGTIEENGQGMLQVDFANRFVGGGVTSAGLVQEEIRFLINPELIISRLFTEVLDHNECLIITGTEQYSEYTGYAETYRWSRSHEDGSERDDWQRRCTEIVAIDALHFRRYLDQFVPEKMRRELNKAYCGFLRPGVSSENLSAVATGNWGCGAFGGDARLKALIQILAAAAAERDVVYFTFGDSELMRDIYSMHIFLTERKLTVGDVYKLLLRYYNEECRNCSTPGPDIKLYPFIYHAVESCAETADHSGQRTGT
Description: PC3 cells treated with 10 μM JA2131 or DMSO were temperature shocked as described in the Examples and the resulting non-aggregated proteins were analyzed with Anti-PARG or Anti-PCNA antibody. Anti-Histone H3 was used as loading control.
Cellular thermal shift assay (CETSA). CETSA was performed as described in Molina et al., 2013. Briefly, PC3 cells were treated with 10 μM JA2131 or an equivalent volume of DMSO for 2 h, washed three times with PBS and extracted for total cell lysate. 10% glycerol was added to the samples before subjecting to heat. Gradient thermal cycler (C1000 Touch, Bio-Rad) was used to heat samples at 42, 57, 66, 72, 77 and 85° C. for 3 min and chilled on ice for 5 min. Then, samples were centrifuged at 14,000 rpm for 20 min at 4° C. Supernatants were carefully removed and analyzed by Western blotting analysis.

Compound: O=C1C(Cl)=C(Cl)C(Cl)(Cl)C(Cl)=C1Cl [JA2131]
- cells showing colocalization of PAR and γH2AX foci [1]: at least 50%
- increase in PAR accumulation following IR in comparison to untreated cells [1]: 20 fold
- γH2AX staining and foci formation, PARGi-treated vs control cells [1]: > 10 fold
- thermal stabilization of PARG proteins in cells [2]: 9 °C

Reference: US12491188B2, “Small molecule PARG inhibitors and methods of use thereof” (Board of Regents, The University of Texas System, priority 2019, dated 2025)
